Consider 17 compounds from patent US9611262B2, “Substituted 2-azabicycles and their use as orexin receptor modulators” (JANSSEN PHARMACEUTICA NV, priority 2014, dated 2017).

The test concerns the target human orexin 2 receptor (Homo sapiens (Human), UniProt O43614). Description: Human orexin 2 receptor radioligand binding ([3H]-EMPA competition). As to conditions: HEK293 stably expressing human orexin 2 receptor; 2 nM [3H]-EMPA; averages of 2-20 runs; read-out: hOX2 Ki. How it is done: The in vitro affinity of the compounds of the invention for the rat/human orexin 1 and human orexin 2 receptors was determined by competitive radioligand binding using [^3H](1-(5-(2-fluoro-phenyl)-2-methyl-thiazol-4-yl)-1-((S)-2-(5-phenyl-(1,3,4)oxadiazol-2-ylmethyl)-pyrrolidin-1-yl)-methanone) (Langmead et al., 2004) and [^3H]EMPA (n-ethyl-2[96-methoxy-pyridin-3-yl)-(toluene-2-sulfonyl)-amino]-N-pyridin-3-ylmethyl acetamide), respectively (Langmead et al., 2004, British Journal of Pharmacology 141:340-346; Malherbe et al., 2004, British Journal of Pharmacology 156:1326-41).
Data are analyzed using pc-Sandy macro and graphed on Graphpad Prism 5. For analysis, each concentration point is averaged from triplicate values and the averaged values are plotted on Graphpad Prism. The IC50 was determined by applying the following equation (GraphPad Prism 5.0, San Diego) for one site competition where X=log (concentration) and Y=specific binding. Top denotes the total [^3H]— (1-(5-(2-fluoro-phenyl)-2-methyl-thiazol-4-yl)-1-((S)-2-(5-phenyl-(1,3,4)oxadiazol-2-ylmethyl)-pyrrolidin-1-yl)-methanone) binding, bottom denotes the nonspecific [^3H]— (1-(5-(2-fluoro-phenyl)-2-methyl-thiazol-4-yl)-1-((S)-2-(5-phenyl-(1,3,4)oxadiazol-2-ylmethyl)-pyrrolidin-1-yl)-methanone) binding. Graphpad Prism calculates Ki value from IC50 and the pre-determined Kd values for [^3H]— (1-(5-(2-fluoro-phenyl)-2-methyl-thiazol-4-yl)-1-((S)-2-(5-phenyl-(1,3,4)oxadiazol-2-ylmethyl)-pyrrolidin-1-yl)-methanone) and [^3H]-EMPA. The Ki for each compound is then uploaded into 3DX. Each run comprises individual compounds in triplicate. The data in Table 1 and Table 2 represent averages from between 2-20 runs
Human Orexin 2 Receptor Radioligand Binding Studies
HEK293 stably expressing human orexin 2 receptor (Genebank accession number NM_001526) were grown to confluency in DMEM (Hyclone, cat # SH30022), 10% FBS, 1× Pen/Strep, 1× NaPyruvate, 10 mM HEPES, 600 μg/ml G418 media on 150 cm^2 tissue culture plates, washed with 5 mM EDTA in PBS (HyClone Dulbecco's Phosphate Buffered Saline 1× with Calcium and Magnesium, Cat # SH30264.01, hereafter referred to simply as PBS) and scraped into 50 ml tubes. After centrifugation (2K×G, 5 min at 4° C.), the supernatant was aspirated and the pellets frozen and stored at −80° C. Cells were resuspended in PBS in the presence of 1 tablet of protease inhibitor cocktail (Roche, Cat. #11836145001) per 50 mL. […] Compounds were solubilized in 100% DMSO (Acros Organics, Cat. #61042-1000) and tested over a range of 7 concentration (from 0.1 nM to 10 μM). The final concentration of DMSO in the reactions is equal to or less than 0.1%. Total and nonspecific binding was determined in the absence and presence of 10 μM almorexant. The total volume of each reaction is 200 μL (20 μL of diluted compounds, 80 μL of [^3H]-EMPA diluted in PBS and 100 μL of the cell suspension). Reactions were run for 60 min at room temperature and terminated by filtration through GF/C filter plates (PerkinElmer, Cat. #6005174) presoaked in 0.3% polyethylenimine using the cell harvester (PerkinElmer Filtermate). The plates were washed 3 times by aspirating 30 ml PBS through the plates. Plates were dried in 55° C. oven for 60 min, scintillation fluid was added, and the radioactivity was counted on a Topcount (Packard).

pKi: −log10 of the molar value.

Chain of human orexin 2 receptor (O43614 whole entry): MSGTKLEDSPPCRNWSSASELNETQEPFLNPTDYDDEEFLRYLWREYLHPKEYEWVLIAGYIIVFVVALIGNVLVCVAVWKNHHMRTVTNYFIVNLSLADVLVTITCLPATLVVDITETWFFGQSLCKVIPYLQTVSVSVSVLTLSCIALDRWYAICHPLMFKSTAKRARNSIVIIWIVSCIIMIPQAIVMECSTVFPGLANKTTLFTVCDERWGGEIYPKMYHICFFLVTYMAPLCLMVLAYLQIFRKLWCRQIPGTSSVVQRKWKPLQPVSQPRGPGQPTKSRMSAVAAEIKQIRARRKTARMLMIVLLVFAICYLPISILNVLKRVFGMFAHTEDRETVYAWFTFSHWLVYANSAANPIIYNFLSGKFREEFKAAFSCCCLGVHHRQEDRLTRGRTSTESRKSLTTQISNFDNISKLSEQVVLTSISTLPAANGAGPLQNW

For orientation: pKi means the Ki on a negative log10 scale, so that one unit is a factor of ten. As to `CCOc1ccc(C)nc1C(=O)N1[C@H](C)[C@H]2C[C@@H](Oc3cnc(C(F)(F)F)cn3)[C@@H]1C2` (relative stereo) [Example 56, (3-ethoxy-6-methylpyridin-2-yl)((1S*,3R*,4R*,6R*)-3-methyl-6-((5-(trifluoromethyl)pyrazin-2-yl)oxy)-2-azabicyclo[2.2.1]heptan-2-yl)methanone], the pKi was 5.15.
Next, `C[C@@H]1[C@H]2C[C@@H](Nc3ccc(C(F)(F)F)cn3)[C@H](C2)N1C(=O)c1ncccc1-n1nccn1` (relative stereo) [Example 64, (3-(2H-1,2,3-triazol-2-yl)pyridin-2-yl)((1S*,3R*,4S*,6R*)-3-methyl-6-((5-(trifluoromethyl)pyridin-2-yl)amino)-2-azabicyclo[2.2.1]heptan-2-yl)methanone]: 6.49.
Next, `C[C@@H]1[C@H]2C[C@@H](Nc3ccc(C(F)(F)F)cn3)[C@H](C2)N1C(=O)c1cccc(F)c1-n1nccn1` (relative stereo) [Example 65, (3-fluoro-2-(2H-1,2,3-triazol-2-yl)phenyl)((1S*,3R*,4S*,6R*)-3-methyl-6-((5-(trifluoromethyl)pyridin-2-yl)amino)-2-azabicyclo[2.2.1]heptan-2-yl)methanone]: 6.74; `Cc1cnc(C(=O)N2[C@H](C)[C@H]3C[C@@H](Nc4ccc(C(F)(F)F)cn4)[C@@H]2C3)c(-n2nccn2)c1` (relative stereo) [Example 66, (5-methyl-3-(2H-1,2,3-triazol-2-yl)pyridin-2-yl)((1S*,3R*,4S*,6R*)-3-methyl-6-((5-(trifluoromethyl)pyridin-2-yl)amino)-2-azabicyclo[2.2.1]heptan-2-yl)methanone]: 6.50.
`Cc1ccc(-n2nccn2)c(C(=O)N2[C@H](C)[C@H]3C[C@@H](Oc4cnc5ccccc5n4)[C@@H]2C3)n1` (relative stereo) [Example 183, (6-methyl-3-(2H-1,2,3-triazol-2-yl)pyridin-2-yl)((1S*,3R*,4R*,6R*)-3-methyl-6-(quinoxalin-2-yloxy)-2-azabicyclo[2.2.1]heptan-2-yl)methanone]: the pKi was 6.71.
Next, `Cc1ccc(-n2nccn2)c(C(=O)N2[C@H](C)[C@H]3C[C@@H](Oc4cnc5ccccc5c4)[C@@H]2C3)n1` (relative stereo) [Example 185, (6-methyl-3-(2H-1,2,3-triazol-2-yl)pyridin-2-yl)((1S*,3R*,4R*,6R*)-3-methyl-6-(quinolin-3-yloxy)-2-azabicyclo[2.2.1]heptan-2-yl)methanone]: 7.21; `C[C@@H]1[C@H]2C[C@@H](Oc3cnc4cc(F)c(F)cc4n3)[C@H](C2)N1C(=O)c1cccc(F)c1-n1nccn1` (relative stereo) [Example 190, ((1S*,3R*,4R*,6R*)-6-((6,7-difluoroquinoxalin-2-yl)oxy)-3-methyl-2-azabicyclo[2.2.1]heptan-2-yl)(3-fluoro-2-(2H-1,2,3-triazol-2-yl)phenyl)methanone]: 6.91.
The result for `C[C@@H]1[C@H]2C[C@@H](Oc3cnc4cc(F)c(F)cc4n3)[C@H](C2)N1C(=O)c1ccccc1-n1nccn1` (relative stereo) [Example 191, (2-(2H-1,2,3-triazol-2-yl)phenyl)((1S*,3R*,4R*,6R*)-6-((6,7-difluoroquinoxalin-2-yl)oxy)-3-methyl-2-azabicyclo[2.2.1]heptan-2-yl)methanone] reads 7.14.
`CC1C2CC(Nc3cnc(C(F)(F)F)cn3)C(C2)N1C(=O)c1ccccc1-n1nccn1` (single isomer, unassigned) [Example 5A, (2-(2H-1,2,3-triazol-2-yl)phenyl)((1R*,3R*,4R*,6S*)-3-methyl-6-((5-(trifluoromethyl)pyrazin-2-yl)amino)-2-azabicyclo[2.2.1]heptan-2-yl)methanone]: the pKi was below 5.00.
Next, `CC1C2CC(Nc3cnc(C(F)(F)F)cn3)C(C2)N1C(=O)c1ccccc1-n1nccn1` (single isomer, unassigned) [Example 5B, (2-(2H-1,2,3-triazol-2-yl)phenyl)((1S*,3S*,4S*,6R*)-3-methyl-6-((5-(trifluoromethyl)pyrazin-2-yl)amino)-2-azabicyclo[2.2.1]heptan-2-yl)methanone]: 6.84; `Cc1ccc(-n2nccn2)c(C(=O)N2C(C)C3CC(Nc4cnc(C(F)(F)F)cn4)C2C3)n1` (single isomer, unassigned) [Example 6, (R/S)-(6-methyl-3-(2H-1,2,3-triazol-2-yl)pyridin-2-yl)(3-methyl-6-((5-(trifluoromethyl)pyrazin-2-yl)amino)-2-azabicyclo[2.2.1]heptan-2-yl)methanone]: 6.18.
The result for `Cc1ccc(-n2nccn2)c(C(=O)N2C(C)C3CC(Nc4cnc(C(F)(F)F)cn4)C2C3)n1` (single isomer, unassigned) [Example 6A, (6-methyl-3-(2H-1,2,3-triazol-2-yl)pyridin-2-yl)((1R*,3R*,4R*,6S*)-3-methyl-6-((5-(trifluoromethyl)pyrazin-2-yl)amino)-2-azabicyclo[2.2.1]heptan-2-yl)methanone] reads below 5.00; that for `Cc1ccc(-n2nccn2)c(C(=O)N2C(C)C3CC(Nc4cnc(C(F)(F)F)cn4)C2C3)n1` (single isomer, unassigned) [Example 6B, (6-methyl-3-(2H-1,2,3-triazol-2-yl)pyridin-2-yl)((1S*,3S*,4S*,6R*)-3-methyl-6-((5-(trifluoromethyl)pyrazin-2-yl)amino)-2-azabicyclo[2.2.1]heptan-2-yl)methanone], 6.81; that for `CC1C2CC(Oc3ccc(C(F)(F)F)cn3)C(C2)N1C(=O)c1ccc(F)cc1-c1ncccn1` (single isomer, unassigned) [Example 17A, (4-fluoro-2-(pyrimidin-2-yl)phenyl)((1R*,3S*,4S*,6S*)-3-methyl-6-((5-(trifluoromethyl)pyridin-2-yl)oxy)-2-azabicyclo[2.2.1]heptan-2-yl)methanone], below 5.00.
Next, `CC1C2CC(Oc3ccc(C(F)(F)F)cn3)C(C2)N1C(=O)c1ccc(F)cc1-c1ncccn1` (single isomer, unassigned) [Example 17B, (4-fluoro-2-(pyrimidin-2-yl)phenyl)((1S*,3R*,4R*,6R*)-3-methyl-6-((5-(trifluoromethyl)pyridin-2-yl)oxy)-2-azabicyclo[2.2.1]heptan-2-yl)methanone]: 6.02; `CC1C2CC(Oc3ccc(C(F)(F)F)cn3)C(C2)N1C(=O)c1cc(F)ccc1-c1ncccn1` (single isomer, unassigned) [Example 18A, (5-fluoro-2-(pyrimidin-2-yl)phenyl)((1R*,3S*,4S*,6S*)-3-methyl-6-((5-(trifluoromethyl)pyridin-2-yl)oxy)-2-azabicyclo[2.2.1]heptan-2-yl)methanone]: below 5.00; `CC1C2CC(Oc3ccc(C(F)(F)F)cn3)C(C2)N1C(=O)c1cc(F)ccc1-c1ncccn1` (single isomer, unassigned) [Example 18B, (5-fluoro-2-(pyrimidin-2-yl)phenyl)((1S*,3R*,4R*,6R*)-3-methyl-6-((5-(trifluoromethyl)pyridin-2-yl)oxy)-2-azabicyclo[2.2.1]heptan-2-yl)methanone]: 6.06.
